Key:
[1] = for vapor or sublimation pressure: Diaphragm manometer; for mass density: isochoric method
[2] = xn = mol fraction of the nth substance listed; conditions: isochoric method

CCC [propane]
[1], Liquid
Conditions	vapor or sublimation pressure [kPa]
305.9 K	1030
319.2 K	1270
326.8 K	2260
334.3 K	2350
349.3 K	3040
362.1 K	3920
367.9 K	4440

[1], Gas
Conditions	mass density [kg/m3]
383.7 K, 5980 kPa	292
397.4 K, 7350 kPa	292
402.9 K, 7940 kPa	292
434 K, 12760 kPa	292

COC [dimethyl ether]
[1]
Conditions	mass density [kg/m3]
382.8 K, 4580 kPa, Liquid	451
402.8 K, 8580 kPa, Gas	451
411.6 K, 10360 kPa, Gas	451
419.5 K, 12150 kPa, Gas	451
425.4 K, 13670 kPa, Gas	451
429.8 K, 14600 kPa, Gas	451
432.6 K, 15210 kPa, Gas	451
437.2 K, 16200 kPa, Gas	451

CCOCC [diethyl ether] + CCC
[2]
Conditions	mass density [kg/m3]
351.8 K, 2080 kPa, Liquid, x2 = 0.748	474
359.2 K, 4110 kPa, Fluid (supercritical or subcritical phases), x2 = 0.748	474
362.8 K, 2080 kPa, Liquid, x2 = 0.651	474
369.5 K, 7470 kPa, Fluid (supercritical or subcritical phases), x2 = 0.748	474
370.3 K, 3910 kPa, Fluid (supercritical or subcritical phases), x2 = 0.651	474
372 K, 3100 kPa, Liquid, x2 = 0.743	401
379.4 K, 6660 kPa, Fluid (supercritical or subcritical phases), x2 = 0.651	474
379.4 K, 10830 kPa, Fluid (supercritical or subcritical phases), x2 = 0.748	474
382.7 K, 4110 kPa, Fluid (supercritical or subcritical phases), x2 = 0.743	401
387.9 K, 9300 kPa, Fluid (supercritical or subcritical phases), x2 = 0.651	474
390.1 K, 5340 kPa, Fluid (supercritical or subcritical phases), x2 = 0.743	401
391.1 K, 14590 kPa, Fluid (supercritical or subcritical phases), x2 = 0.748	474
394.9 K, 4010 kPa, Liquid, x2 = 0.655	401
397.1 K, 12250 kPa, Fluid (supercritical or subcritical phases), x2 = 0.651	474
399.9 K, 4420 kPa, Liquid, x2 = 0.742	311
401.1 K, 7670 kPa, Fluid (supercritical or subcritical phases), x2 = 0.743	401
401.1 K, 17840 kPa, Fluid (supercritical or subcritical phases), x2 = 0.748	474
401.9 K, 5030 kPa, Fluid (supercritical or subcritical phases), x2 = 0.655	401
405.6 K, 5640 kPa, Fluid (supercritical or subcritical phases), x2 = 0.655	401
407.5 K, 5130 kPa, Fluid (supercritical or subcritical phases), x2 = 0.742	311
407.7 K, 15710 kPa, Fluid (supercritical or subcritical phases), x2 = 0.651	474
409.2 K, 4620 kPa, Liquid, x2 = 0.651	311
410.7 K, 9710 kPa, Fluid (supercritical or subcritical phases), x2 = 0.743	401
411.4 K, 21600 kPa, Fluid (supercritical or subcritical phases), x2 = 0.748	474
412 K, 6760 kPa, Fluid (supercritical or subcritical phases), x2 = 0.655	401
417.7 K, 6250 kPa, Fluid (supercritical or subcritical phases), x2 = 0.742	311
418.5 K, 5130 kPa, Fluid (supercritical or subcritical phases), x2 = 0.651	311
419.2 K, 19360 kPa, Fluid (supercritical or subcritical phases), x2 = 0.651	474
419.7 K, 11640 kPa, Fluid (supercritical or subcritical phases), x2 = 0.743	401
422.6 K, 8790 kPa, Fluid (supercritical or subcritical phases), x2 = 0.655	401
429.1 K, 6250 kPa, Fluid (supercritical or subcritical phases), x2 = 0.651	311
429.1 K, 7570 kPa, Fluid (supercritical or subcritical phases), x2 = 0.742	311
429.6 K, 10210 kPa, Fluid (supercritical or subcritical phases), x2 = 0.655	401
430.4 K, 13770 kPa, Fluid (supercritical or subcritical phases), x2 = 0.743	401
437.5 K, 11740 kPa, Fluid (supercritical or subcritical phases), x2 = 0.655	401
437.5 K, 15300 kPa, Fluid (supercritical or subcritical phases), x2 = 0.743	401
437.8 K, 8590 kPa, Fluid (supercritical or subcritical phases), x2 = 0.742	311
438.5 K, 7270 kPa, Fluid (supercritical or subcritical phases), x2 = 0.651	311
447.3 K, 9710 kPa, Fluid (supercritical or subcritical phases), x2 = 0.742	311
447.6 K, 13670 kPa, Fluid (supercritical or subcritical phases), x2 = 0.655	401
449 K, 8390 kPa, Fluid (supercritical or subcritical phases), x2 = 0.651	311
452.4 K, 18650 kPa, Fluid (supercritical or subcritical phases), x2 = 0.743	401
455 K, 15200 kPa, Fluid (supercritical or subcritical phases), x2 = 0.655	401
458.5 K, 9500 kPa, Fluid (supercritical or subcritical phases), x2 = 0.651	311
459 K, 11220 kPa, Fluid (supercritical or subcritical phases), x2 = 0.742	311
466.1 K, 12150 kPa, Fluid (supercritical or subcritical phases), x2 = 0.742	311
467.4 K, 10620 kPa, Fluid (supercritical or subcritical phases), x2 = 0.651	311
470 K, 10930 kPa, Fluid (supercritical or subcritical phases), x2 = 0.651	311

CCCCC [pentane]
Conditions	vapor or sublimation pressure [kPa]
[1], 406.9 K, Liquid	1300

[1], Liquid
Conditions	mass density [kg/m3]
417.1 K, 3060 kPa	484
428 K, 6070 kPa	484
436.6 K, 8340 kPa	484
446.3 K, 10730 kPa	484
453.2 K, 12730 kPa	484

CCOCC [diethyl ether]
[1], Liquid
Conditions	vapor or sublimation pressure [kPa]
424.3 K	1790
434.3 K	2150
438.9 K	2390

[1], Liquid
Conditions	mass density [kg/m3]
442.3 K, 3250 kPa	473
445.3 K, 3750 kPa	473
447.8 K, 4200 kPa	473
450.2 K, 4750 kPa	473
453.9 K, 5680 kPa	473
459.4 K, 6890 kPa	473

CCCCC [pentane] + CCC
[2]
Conditions	mass density [kg/m3]
319.6 K, 5320 kPa, Liquid, x2 = 0.849	507
320.4 K, 12800 kPa, Liquid, x2 = 0.512	567
324.9 K, 8620 kPa, Liquid, x2 = 0.849	507
326.1 K, 16230 kPa, Liquid, x2 = 0.512	567
328.6 K, 10330 kPa, Liquid, x2 = 0.849	507
331.8 K, 12010 kPa, Liquid, x2 = 0.849	507
332 K, 19720 kPa, Liquid, x2 = 0.512	567
336.2 K, 14280 kPa, Liquid, x2 = 0.849	507
337.7 K, 22920 kPa, Liquid, x2 = 0.512	567
340.8 K, 16310 kPa, Liquid, x2 = 0.849	507
341.2 K, 24970 kPa, Liquid, x2 = 0.512	567
345.3 K, 18250 kPa, Liquid, x2 = 0.849	507
349.2 K, 20380 kPa, Liquid, x2 = 0.849	507
353.6 K, 22340 kPa, Liquid, x2 = 0.849	507
357.2 K, 24290 kPa, Liquid, x2 = 0.849	507
394.8 K, 3250 kPa, Liquid, x2 = 0.551	401
397.7 K, 4520 kPa, Liquid, x2 = 0.78	311
404.7 K, 4010 kPa, Fluid (supercritical or subcritical phases), x2 = 0.551	401
406.5 K, 5640 kPa, Fluid (supercritical or subcritical phases), x2 = 0.78	311
409.3 K, 3610 kPa, Liquid, x2 = 0.474	384
410.5 K, 4620 kPa, Fluid (supercritical or subcritical phases), x2 = 0.551	401
416.5 K, 6760 kPa, Fluid (supercritical or subcritical phases), x2 = 0.78	311
418.3 K, 5640 kPa, Fluid (supercritical or subcritical phases), x2 = 0.551	401
419.2 K, 4730 kPa, Fluid (supercritical or subcritical phases), x2 = 0.474	384
428.6 K, 8280 kPa, Fluid (supercritical or subcritical phases), x2 = 0.78	311
428.9 K, 6560 kPa, Fluid (supercritical or subcritical phases), x2 = 0.474	384
437.3 K, 9610 kPa, Fluid (supercritical or subcritical phases), x2 = 0.78	311
439.5 K, 8280 kPa, Fluid (supercritical or subcritical phases), x2 = 0.474	384
447.3 K, 10720 kPa, Fluid (supercritical or subcritical phases), x2 = 0.78	311
449.2 K, 10010 kPa, Fluid (supercritical or subcritical phases), x2 = 0.474	384
456.4 K, 12260 kPa, Fluid (supercritical or subcritical phases), x2 = 0.78	311

Reference: the NIST ThermoML archive (doi:10.1021/acs.jced.9b00249)
